Reference: ChEMBL document CHEMBL4321881 (J Med Chem, 2020)
Values after ≈ are worked out from the molar mass of the structure shown.

Experiments:
[1] = Solubility of the compound; format: physicochemical
[2] = Metabolic stability in human liver microsomes assessed as parent compound remaining after 30 mins; format: ADME, Microsome; conditions: read-out: Stability
[3] = Metabolic stability in mouse liver microsomes assessed as parent compound remaining after 30 mins; format: ADME, Microsome; conditions: read-out: Stability
[4] = biological target: T1, Isocitrate dehydrogenase [NADP] cytoplasmic (Homo sapiens, UniProt O75874, R132H); assay: Inhibition of recombinant human Myc-DDK-tagged IDH1 R132H mutant using alpha-ketoglutarate as substrate preincubated for 15 mins followed by substrate and NADPH addition and measured after 45 mins by diaphorase/resazurin dye based assay
Target sequence in this assay (O75874 2-414 R132H limits assumed): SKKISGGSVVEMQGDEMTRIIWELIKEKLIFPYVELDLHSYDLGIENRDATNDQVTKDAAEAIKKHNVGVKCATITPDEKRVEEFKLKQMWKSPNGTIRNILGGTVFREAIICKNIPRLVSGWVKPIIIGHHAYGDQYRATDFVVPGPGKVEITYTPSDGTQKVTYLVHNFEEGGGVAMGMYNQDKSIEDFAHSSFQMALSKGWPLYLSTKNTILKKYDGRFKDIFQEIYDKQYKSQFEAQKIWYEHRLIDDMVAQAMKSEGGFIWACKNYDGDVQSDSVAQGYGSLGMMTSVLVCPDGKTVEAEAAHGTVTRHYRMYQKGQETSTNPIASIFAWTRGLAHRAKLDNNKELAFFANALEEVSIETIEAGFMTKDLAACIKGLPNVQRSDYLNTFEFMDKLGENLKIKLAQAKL

[5] = biological target: T2, Isocitrate dehydrogenase [NADP] cytoplasmic (Homo sapiens, UniProt O75874, R132C); assay: Inhibition of recombinant human Myc-DDK-tagged IDH1 R132C mutant using alpha-ketoglutarate as substrate preincubated for 15 mins followed by substrate and NADPH addition and measured after 45 mins by diaphorase/resazurin dye based assay
Target sequence in this assay (O75874 2-414 R132C limits assumed): as the sequence (O75874 2-414 R132H limits assumed) above, with H131C counted along it

[6] = biological target: T2, Isocitrate dehydrogenase [NADP] cytoplasmic; assay: Inhibition of IDH1 R132C mutant in human HCT116 cells assessed as reduction in 2-HG levels after 24 hrs by RapidFire high-throughput mass spectrometry assay; format: cell-based
Target sequence in this assay (O75874 whole entry R132C): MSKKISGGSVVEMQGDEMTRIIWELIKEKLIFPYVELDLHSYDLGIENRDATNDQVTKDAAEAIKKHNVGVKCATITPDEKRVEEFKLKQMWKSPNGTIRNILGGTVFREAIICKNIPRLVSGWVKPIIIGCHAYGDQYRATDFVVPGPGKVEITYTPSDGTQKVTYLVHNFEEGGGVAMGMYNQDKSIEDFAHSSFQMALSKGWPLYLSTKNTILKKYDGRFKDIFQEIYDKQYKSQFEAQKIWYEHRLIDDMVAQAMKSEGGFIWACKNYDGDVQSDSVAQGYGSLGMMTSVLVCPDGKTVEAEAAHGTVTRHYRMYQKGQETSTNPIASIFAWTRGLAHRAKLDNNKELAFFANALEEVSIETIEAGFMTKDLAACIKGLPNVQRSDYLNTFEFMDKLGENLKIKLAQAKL

[7] = biological target: T1, Isocitrate dehydrogenase [NADP] cytoplasmic; assay: Inhibition of IDH1 R132H mutant in human HCT116 cells assessed as reduction in 2-HG levels after 24 hrs by RapidFire high-throughput mass spectrometry assay; format: cell-based
Target sequence in this assay (O75874 whole entry R132H): as the sequence (O75874 whole entry R132C) above, with C132H counted along it

[8] = Apparent permeability across basolateral to apical side in human Caco2 cells; format: ADME, cell-based; conditions: caco-2
Mus musculus [9] = assay: In vivo inhibition of IDH1 R132H mutant in human HCT116 cells xenografted in po dosed BALB/c nude mouse assessed as reduction in tumor 2-HG level administered at 12 hrs intervals for 3 times measured up to 24 hrs post-last dose by LC-MS analysis; format: functional
Mus musculus [10] = assay: In vivo inhibition of IDH1 R132H mutant in human HCT116 cells xenografted in BALB/c nude mouse assessed as reduction in tumor 2-HG level at 50 mg/kg, po administered at 12 hrs intervals for 3 times measured up to 24 hrs post-last dose by LC-MS analysis relative to control; format: functional; conditions: HCT-116, po
Mus musculus [11] = assay: In vivo inhibition of IDH1 R132C mutant in human HCT116 cells xenografted in po dosed BALB/c nude mouse assessed as reduction in tumor 2-HG level administered at 12 hrs intervals for 3 times measured up to 24 hrs post-last dose by LC-MS analysis; format: functional
[12] = Time at which fCmax required to show >90% suppression of 2-HG level in human HCT116 cells xenografted BALB/c nude mouse in CD1 mouse at 100 mg/kg, po; format: ADME, organism-based; conditions: in vivo
[13] = Kinetic solubility of the compound at pH 7.4; format: physicochemical; conditions: buffer, read-out: Kinetic_solubility
Mus musculus [14] = assay: In vivo inhibition of IDH1 R132C mutant in human HCT116 cells xenografted in BALB/c nude mouse assessed as reduction in tumor 2-HG level at 50 mg/kg, po administered at 12 hrs intervals for 3 times measured at 12 to 24 hrs post-last dose by LC-MS analysis relative to control; format: functional; conditions: HCT-116, po
[15] = Free Cmax in CD1 mouse at 100 mg/kg, po administered as single dose measured after 7 hrs; format: ADME, organism-based; conditions: in vivo
[16] = Permeability of the compound by PAMPA; format: ADME; conditions: read-out: permeability
[17] = Apparent permeability across apical to basolateral side in human Caco2 cells; format: ADME, cell-based; conditions: caco-2
[18] = Free Cmax in CD1 mouse at 100 mg/kg, po administered as single dose; format: ADME, organism-based; conditions: in vivo

| SMILES | solubility [1] | remaining at 0.5 h [2] | remaining at 0.5 h [3] | IC50 [4] | further results |
| --- | --- | --- | --- | --- | --- |
| COc1cc2[nH]c(=O)c([C@H](C)Nc3ccc(C#N)n(C)c3=O)cc2cc1Cl | 11.6 µM (≈ 4.46 µg/mL) | 83% | – | – | – |
| Cn1cccc(NCc2cc3cc(Cl)ccc3[nH]c2=O)c1=O | 54 µM (≈ 17.1 µg/mL) | 90% | 26% | – | – |
| C[C@H](Nc1ccc(C#N)n(C)c1=O)c1cc2cc(Cl)c(F)cc2[nH]c1=O | 18 µM (≈ 6.71 µg/mL) | 100% | – | 25 nM | IC50 [5]: 159 nM; IC50 [6]: 104 nM; IC50 [7]: 22 nM |
| N#Cc1ccc(NCc2cc3cc(Cl)ccc3[nH]c2=O)c(=O)[nH]1 | 2.21 µM (≈ 0.722 µg/mL) | 100% | 86% | 64.7 nM | – |
| O=c1[nH]c2ccc(Cl)cc2cc1CNc1cccn(C2CC2)c1=O | 56 µM (≈ 19.1 µg/mL) | 78% | 7% | – | – |
| C[C@H](Nc1ccc(C#N)n(C)c1=O)c1cc2cc(Cl)c(OCC3CC3)cc2[nH]c1=O | 0.53 µM (≈ 0.225 µg/mL) | 82% | – | – | – |
| Cn1c(C(F)(F)F)ccc(NCc2cc3cc(Cl)ccc3[nH]c2=O)c1=O | < 0.1 µM | 85% | 67% | 160 nM | – |
| C[C@H](Nc1ccc(C#N)n(C)c1=O)c1cc2cc(Cl)c(OCc3ccccn3)cc2[nH]c1=O | 2.5 µM (≈ 1.15 µg/mL) | 66% | – | – | – |
| C[C@H](Nc1ccc(C#N)n(C)c1=O)c1cc2cc(Cl)c(O[C@H](C)c3ccccn3)cc2[nH]c1=O | 1.6 µM (≈ 0.761 µg/mL) | 70% | – | – | – |
| COc1cccc(NCc2cc3cc(Cl)ccc3[nH]c2=O)c1 | 0.28 µM (≈ 0.0881 µg/mL) | 78% | 19% | > 25000 nM | – |
| CN1CCCC(NCc2cc3cc(Cl)ccc3[nH]c2=O)C1=O (stereo unspecified) | 94 µM (≈ 30.1 µg/mL) | 99% | 83% | 25000 nM | – |
| Cn1c(C#N)ccc(NCc2cc3cc(Cl)ccc3[nH]c2=O)c1=O | 0.295 µM (≈ 0.101 µg/mL) | 99% | 73% | – | – |
| CCn1cccc(NCc2cc3cc(Cl)ccc3[nH]c2=O)c1=O | 10 µM (≈ 3.3 µg/mL) | 72% | 7% | – | – |
| C[C@H](Nc1ccc(C#N)n(C)c1=O)c1cc2cc(Cl)ccc2[nH]c1=O [OLUTASIDENIB] | 34.5 µM (≈ 12.2 µg/mL) | 100% | 92% | – | Papp [8]: 9.01 ×10⁻⁶ cm/s; fIC50 (Mus musculus [9]): 26 nM; inhibition in vivo at 50 mg/kg (Mus musculus [10]): > 90%; fIC50 (Mus musculus [11]): 36 nM; Time [12]: 7 h; solubility kinetic [13]: 35.4 µM (≈ 12.6 µg/mL); inhibition in vivo at 50 mg/kg (Mus musculus [14]): > 90%; fCmax [15]: 130 nM; Papp [16]: 19.9 ×10⁻⁶ cm/s; Papp [17]: 12.12 ×10⁻⁶ cm/s; fCmax [18]: 200 nM |
